Measured values published in ChEMBL document CHEMBL1125863, “New aromatase inhibitors. Synthesis and biological activity of pyridyl-substituted tetralone derivatives” (J Med Chem, 1991).
Where “and” joins values, the source holds several entries; their conditions need not be identical. Equal entries are not always repeated.

What was measured:
Rattus norvegicus [1] = organism: Rattus norvegicus; assay type: functional; conditions: dose 10.1 mg/kg
Rattus norvegicus [2] = organism: Rattus norvegicus; assay type: functional; conditions: dose 10 mg/kg
Rattus norvegicus [3] = organism: Rattus norvegicus; assay type: functional; conditions: dose 10.1 mg/kg; remark: listed apart in the source
Rattus norvegicus [4] = organism: Rattus norvegicus; assay type: functional; conditions: dose 10.1 mg/kg; remark: listed apart in the source
Rattus norvegicus [5] = organism: Rattus norvegicus; assay type: functional; conditions: dose 10.1 mg/kg; remark: listed apart in the source
Rattus norvegicus [6] = organism: Rattus norvegicus; assay type: functional; conditions: dose 10.1 mg/kg; remark: listed apart in the source
Rattus norvegicus [7] = organism: Rattus norvegicus; assay type: functional; conditions: dose 10.1 mg/kg; remark: listed apart in the source
Rattus norvegicus [8] = organism: Rattus norvegicus; assay type: functional; conditions: dose 10.2 mg/kg
Rattus norvegicus [9] = organism: Rattus norvegicus; assay type: functional; conditions: dose 10.2 mg/kg; remark: listed apart in the source
Rattus norvegicus [10] = organism: Rattus norvegicus; assay type: functional; conditions: dose 10.2 mg/kg; remark: listed apart in the source
Rattus norvegicus [11] = organism: Rattus norvegicus; assay type: functional; conditions: dose 10.2 mg/kg; remark: listed apart in the source
Rattus norvegicus [12] = organism: Rattus norvegicus; assay type: functional; conditions: dose 10.2 mg/kg; remark: listed apart in the source
Rattus norvegicus [13] = organism: Rattus norvegicus; assay type: functional; conditions: dose 10.2 mg/kg; remark: listed apart in the source
Rattus norvegicus [14] = organism: Rattus norvegicus; assay type: functional; conditions: dose 10.2 mg/kg; remark: listed apart in the source
Rattus norvegicus [15] = organism: Rattus norvegicus; conditions: Heart right ventricle
Rattus norvegicus [16] = organism: Rattus norvegicus; conditions: Heart right ventricle; remark: listed apart in the source
Rattus norvegicus [17] = organism: Rattus norvegicus; conditions: Heart right ventricle; remark: listed apart in the source
Rattus norvegicus [18] = organism: Rattus norvegicus; assay type: functional; conditions: dose 10.9 mg/kg
Rattus norvegicus [19] = organism: Rattus norvegicus; assay type: functional; conditions: dose 10.9 mg/kg; remark: listed apart in the source
Rattus norvegicus [20] = organism: Rattus norvegicus; assay type: functional; conditions: dose 10.9 mg/kg; remark: listed apart in the source
Rattus norvegicus [21] = organism: Rattus norvegicus; assay type: functional; conditions: dose 10.9 mg/kg; remark: listed apart in the source
Rattus norvegicus [22] = organism: Rattus norvegicus; assay type: functional; conditions: dose 10.9 mg/kg; remark: listed apart in the source
Rattus norvegicus [23] = organism: Rattus norvegicus; assay type: functional; conditions: dose 10.9 mg/kg; remark: listed apart in the source
Rattus norvegicus [24] = organism: Rattus norvegicus; assay type: functional; conditions: dose 10.9 mg/kg; remark: listed apart in the source
Rattus norvegicus [25] = organism: Rattus norvegicus; conditions: Ovarian vein
Rattus norvegicus [26] = organism: Rattus norvegicus; conditions: Heart right ventricle; remark: listed apart in the source
Rattus norvegicus [27] = organism: Rattus norvegicus; assay type: functional; conditions: dose 20 mg/kg
Rattus norvegicus [28] = organism: Rattus norvegicus; assay type: functional; conditions: dose 20 mg/kg; remark: listed apart in the source
Rattus norvegicus [29] = organism: Rattus norvegicus; assay type: functional; conditions: dose 20 mg/kg; remark: listed apart in the source
Rattus norvegicus [30] = organism: Rattus norvegicus; assay type: functional; conditions: dose 20 mg/kg; remark: listed apart in the source
Rattus norvegicus [31] = organism: Rattus norvegicus; assay type: functional; conditions: dose 20 mg/kg; remark: listed apart in the source
Rattus norvegicus [32] = organism: Rattus norvegicus; assay type: functional; conditions: dose 20 mg/kg; remark: listed apart in the source
Rattus norvegicus [33] = organism: Rattus norvegicus; assay type: functional; conditions: dose 20 mg/kg; remark: listed apart in the source
Rattus norvegicus [34] = organism: Rattus norvegicus; conditions: Heart right ventricle; remark: listed apart in the source
Rattus norvegicus [35] = organism: Rattus norvegicus; conditions: Heart right ventricle; remark: listed apart in the source
Rattus norvegicus [36] = organism: Rattus norvegicus; conditions: Heart right ventricle; remark: listed apart in the source
Rattus norvegicus [37] = organism: Rattus norvegicus; conditions: Heart right ventricle; remark: listed apart in the source
Rattus norvegicus [38] = organism: Rattus norvegicus; conditions: Heart right ventricle; remark: listed apart in the source
Rattus norvegicus [39] = organism: Rattus norvegicus; conditions: Heart right ventricle; remark: listed apart in the source
Rattus norvegicus [40] = organism: Rattus norvegicus; conditions: Heart right ventricle; remark: listed apart in the source
Rattus norvegicus [41] = organism: Rattus norvegicus; conditions: Heart right ventricle; remark: listed apart in the source
Rattus norvegicus [42] = organism: Rattus norvegicus; conditions: Heart right ventricle; remark: listed apart in the source
Aromatase = molecular target: T1, Aromatase (Rattus norvegicus, UniProt P22443)
T1 sequence (P22443 whole entry): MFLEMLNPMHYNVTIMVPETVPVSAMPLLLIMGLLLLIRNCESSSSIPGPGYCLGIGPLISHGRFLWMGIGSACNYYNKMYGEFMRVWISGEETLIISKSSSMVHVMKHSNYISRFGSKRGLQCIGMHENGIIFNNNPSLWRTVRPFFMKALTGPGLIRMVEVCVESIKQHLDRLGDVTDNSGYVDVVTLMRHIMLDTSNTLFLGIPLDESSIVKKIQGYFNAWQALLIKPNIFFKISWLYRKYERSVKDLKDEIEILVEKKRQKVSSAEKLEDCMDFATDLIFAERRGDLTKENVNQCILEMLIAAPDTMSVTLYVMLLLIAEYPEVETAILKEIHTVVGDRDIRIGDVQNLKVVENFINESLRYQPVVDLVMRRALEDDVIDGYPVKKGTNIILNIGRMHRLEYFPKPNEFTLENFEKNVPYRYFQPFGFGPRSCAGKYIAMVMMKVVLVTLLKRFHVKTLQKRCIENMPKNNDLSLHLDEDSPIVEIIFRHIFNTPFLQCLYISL

Rattus norvegicus [43] = organism: Rattus norvegicus; assay type: functional; conditions: dose 10 mg/kg; remark: listed apart in the source
Rattus norvegicus [44] = organism: Rattus norvegicus; assay type: functional; conditions: dose 10 mg/kg; remark: listed apart in the source
Rattus norvegicus [45] = organism: Rattus norvegicus; assay type: functional; conditions: dose 10 mg/kg; remark: listed apart in the source
Rattus norvegicus [46] = organism: Rattus norvegicus; assay type: functional; conditions: dose 10 mg/kg; remark: listed apart in the source
Rattus norvegicus [47] = organism: Rattus norvegicus; assay type: functional; conditions: dose 10 mg/kg; remark: listed apart in the source
Rattus norvegicus [48] = organism: Rattus norvegicus; assay type: functional; conditions: dose 10 mg/kg; remark: listed apart in the source
Rattus norvegicus [49] = organism: Rattus norvegicus; assay type: functional; conditions: dose 11.4 mg/kg
Rattus norvegicus [50] = organism: Rattus norvegicus; assay type: functional; conditions: dose 11.4 mg/kg; remark: listed apart in the source
Rattus norvegicus [51] = organism: Rattus norvegicus; assay type: functional; conditions: dose 11.4 mg/kg; remark: listed apart in the source
Rattus norvegicus [52] = organism: Rattus norvegicus; assay type: functional; conditions: dose 11.4 mg/kg; remark: listed apart in the source
Rattus norvegicus [53] = organism: Rattus norvegicus; assay type: functional; conditions: dose 11.4 mg/kg; remark: listed apart in the source
Rattus norvegicus [54] = organism: Rattus norvegicus; assay type: functional; conditions: dose 11.4 mg/kg; remark: listed apart in the source
Rattus norvegicus [55] = organism: Rattus norvegicus; assay type: functional
Rattus norvegicus [56] = organism: Rattus norvegicus; assay type: functional; conditions: dose 11.5 mg/kg
Rattus norvegicus [57] = organism: Rattus norvegicus; assay type: functional; conditions: dose 11.5 mg/kg; remark: listed apart in the source
Rattus norvegicus [58] = organism: Rattus norvegicus; assay type: functional; conditions: dose 11.5 mg/kg; remark: listed apart in the source
Rattus norvegicus [59] = organism: Rattus norvegicus; assay type: functional; conditions: dose 11.5 mg/kg; remark: listed apart in the source
Rattus norvegicus [60] = organism: Rattus norvegicus; assay type: functional; conditions: dose 11.5 mg/kg; remark: listed apart in the source
Rattus norvegicus [61] = organism: Rattus norvegicus; assay type: functional; conditions: dose 11.5 mg/kg; remark: listed apart in the source
Rattus norvegicus [62] = organism: Rattus norvegicus; assay type: functional; conditions: dose 11.5 mg/kg; remark: listed apart in the source

Structure (SMILES): CCC(=O)O[C@H]1CC[C@H]2[C@@H]3CCC4=CC(=O)CC[C@]4(C)[C@H]3CC[C@]12C.O=C1/C(=C/c2ccncc2)CCc2ccccc21
- Tumors with CR (Rattus norvegicus [1]): 20%
- Change of tumor area (Rattus norvegicus [2]): 2%
- Tumors with CR (Rattus norvegicus [3]): 20%
- No. of tumors (Rattus norvegicus [4]): 30
- Tumors with CR (Rattus norvegicus [5]): 40%
- Tumors with CR (Rattus norvegicus [6]): 20%
- No. of tumors (Rattus norvegicus [7]): 6

Structure (SMILES): CCC(=O)O[C@H]1CC[C@H]2[C@@H]3CCC4=CC(=O)CC[C@]4(C)[C@H]3CC[C@]12C.O=C1c2ccccc2CCC1Cc1ccncc1
- Change of tumor area (Rattus norvegicus [8]): 41%
- Tumors with CR (Rattus norvegicus [9]): 32%
- Tumors with CR (Rattus norvegicus [10]): 45%
- Tumors with CR (Rattus norvegicus [11]): 13%
- Tumors with CR (Rattus norvegicus [12]): 10%
- No. of tumors (Rattus norvegicus [13]): 8
- No. of tumors (Rattus norvegicus [14]): 31

Structure (SMILES): CCC1(c2ccc(N)cc2)CCC(=O)NC1=O (configuration not stated)
- Plasma-E2 concentration (Rattus norvegicus [15]): 272 pg/mL
- Plasma-E2 concentration (Rattus norvegicus [16]): 164 pg/mL
- Plasma-E2 concentration (Rattus norvegicus [17]): 843 pg/mL and 500 pg/mL

Structure (SMILES): CCC(=O)O[C@H]1CC[C@H]2[C@@H]3CCC4=CC(=O)CC[C@]4(C)[C@H]3CC[C@]12C.O=C1c2cccc(O)c2CCC1Cc1ccncc1
- No. of tumors (Rattus norvegicus [18]): 33
- Tumors with CR (Rattus norvegicus [19]): 27%
- Change of tumor area (Rattus norvegicus [20]): 61%
- Tumors with CR (Rattus norvegicus [21]): 6%
- Tumors with CR (Rattus norvegicus [22]): 45%
- Tumors with CR (Rattus norvegicus [23]): 21%
- No. of tumors (Rattus norvegicus [24]): 3

Structure (SMILES): O=C1/C(=C/c2ccncc2)CCc2c(O)cccc21
- Plasma-E2 concentration (Rattus norvegicus [25]): 4040 pg/mL
- Plasma-E2 concentration (Rattus norvegicus [26]): 524 pg/mL

Structure (SMILES): CCC(=O)O[C@H]1CC[C@H]2[C@@H]3CCC4=CC(=O)CC[C@]4(C)[C@H]3CC[C@]12C [TESTOSTERONE PROPIONATE]
- No. of tumors (Rattus norvegicus [27]): 12
- Tumors with CR (Rattus norvegicus [28]): 19%
- No. of tumors (Rattus norvegicus [29]): 36
- Tumors with CR (Rattus norvegicus [30]): 19%
- Tumors with CR (Rattus norvegicus [31]): 36%
- Tumors with CR (Rattus norvegicus [32]): 25%
- Change of tumor area (Rattus norvegicus [33]): 141%

Structure (SMILES): O=C1c2ccccc2CCC1Cc1ccncc1 (configuration not stated)
- Plasma-E2 concentration (Rattus norvegicus [25]): 3700 pg/mL
- Plasma-E2 concentration (Rattus norvegicus [34]): 717 pg/mL

Structure (SMILES): COc1cccc2c1CCC(Cc1ccncc1)C2=O (configuration not stated)
- Plasma-E2 concentration (Rattus norvegicus [25]): 3950 pg/mL
- Plasma-E2 concentration (Rattus norvegicus [35]): 894 pg/mL
- Plasma-E2 concentration (Rattus norvegicus [26]): 542 pg/mL
- Plasma-E2 concentration (Rattus norvegicus [36]): 990 pg/mL
- Plasma-E2 concentration (Rattus norvegicus [37]): 1040 pg/mL
- Plasma-E2 concentration (Rattus norvegicus [38]): 458 pg/mL
- Plasma-E2 concentration (Rattus norvegicus [15]): 576 pg/mL
- Plasma-E2 concentration (Rattus norvegicus [39]): 882 pg/mL
- Plasma-E2 concentration (Rattus norvegicus [40]): 639 pg/mL
- Plasma-E2 concentration (Rattus norvegicus [41]): 851 pg/mL
- Plasma-E2 concentration (Rattus norvegicus [42]): 1250 pg/mL
- IC50 (Aromatase): 8 µM
- Plasma-E2 concentration (Rattus norvegicus [17]): 1460 pg/mL and 902 pg/mL

Structure (SMILES): CCC(=O)O[C@H]1CC[C@H]2[C@@H]3CCC4=CC(=O)CC[C@]4(C)[C@H]3CC[C@]12C.CCC1(c2ccc(N)cc2)CCC(=O)NC1=O
- Change of tumor area (Rattus norvegicus [2]): 4%
- Tumors with CR (Rattus norvegicus [43]): 54%
- Tumors with CR (Rattus norvegicus [44]): 23%
- No. of tumors (Rattus norvegicus [45]): 7
- Tumors with CR (Rattus norvegicus [46]): 6%
- Tumors with CR (Rattus norvegicus [47]): 17%
- No. of tumors (Rattus norvegicus [48]): 35

Structure (SMILES): CCC(=O)O[C@H]1CC[C@H]2[C@@H]3CCC4=CC(=O)CC[C@]4(C)[C@H]3CC[C@]12C.COc1cccc2c1CC/C(=C\c1ccncc1)C2=O
- Tumors with CR (Rattus norvegicus [49]): 11%
- Tumors with CR (Rattus norvegicus [50]): 50%
- No. of tumors (Rattus norvegicus [51]): 28
- Change of tumor area (Rattus norvegicus [52]): 115%
- No. of tumors (Rattus norvegicus [53]): 9
- Tumors with CR (Rattus norvegicus [54]): 29%
- Tumors with CR (Rattus norvegicus [55]): 11%

Structure (SMILES): O=C1c2cccc(O)c2CCC1Cc1ccncc1 (stereo in doubt; 12)
- Plasma-E2 concentration (Rattus norvegicus [25]): 3700 pg/mL
- Plasma-E2 concentration (Rattus norvegicus [26]): 472 pg/mL
- IC50 (Aromatase): 2 µM

Structure (SMILES): CCC(=O)O[C@H]1CC[C@H]2[C@@H]3CCC4=CC(=O)CC[C@]4(C)[C@H]3CC[C@]12C.COc1cccc2c1CCC(Cc1ccncc1)C2=O
- Tumors with CR (Rattus norvegicus [56]): 24%
- No. of tumors (Rattus norvegicus [57]): 11
- No. of tumors (Rattus norvegicus [58]): 34
- Change of tumor area (Rattus norvegicus [59]): 50%
- Tumors with CR (Rattus norvegicus [60]): 12%
- Tumors with CR (Rattus norvegicus [61]): 29%
- Tumors with CR (Rattus norvegicus [62]): 35%
